Assay results published in PMC7797213, “Vascular effects of serelaxin in patients with stable coronary artery disease: a randomized placebo-controlled trial” (Cardiovascular Research, 2020).

Assays:
Type in all cases: in vivo, human
[1] = test system: patients with stable coronary artery disease; assay: Applanation tonometry-derived augmentation index (AIx); settings: for AIx, absolute value: mean ± SD; for AIx, adjusted mean difference serelaxin versus placebo / AIx, change from baseline (adjusted mean): repeated measures ANCOVA
Protocol: (30 μg/kg/day) or matching placebo, using a computerized randomization system involving concealed treatment arms. The co-primary endpoints were the change from baseline in global myocardial perfusion reserve (MPR) measured by quantitative perfusion cardiac magnetic resonance (CMR) imaging and the change from baseline in augmentation index (AIx) measured by applanation tonometry. The primary endpoints of MPR and AIx were assessed at baseline and 47 h post-commencement of the infusion (Figure 1).
(§1) The applanation tonometry assessments were performed by blinded operators. Augmentation index [AIx = (augmentation pressure/pulse pressure) × 100], and carotid-femoral PWV were measured by applanation tonometry (Sphygmocor®, AtCor Medical, Australia) at a proximal (carotid artery) and a distal (femoral artery) site of the body, utilizing R-wave gated determination of the time interval between the two measurement points. An averaged carotid pressure waveform (from a 10 s recording) was converted into a corresponding central waveform using a validated transfer function (SphygmoCor®, AtCor, Australia).[27]^,[28]

[2] = test system: patients with stable coronary artery disease; assay: Applanation tonometry carotid-femoral pulse wave velocity (PWV); settings: for PWV, absolute value: mean ± SD; for PWV, adjusted mean difference serelaxin versus placebo / PWV, change from baseline (adjusted mean): repeated measures ANCOVA
Protocol: Secondary endpoints included: the change from baseline in AIx and pulse wave velocity (PWV) assessed at the end of treatment, Day 30 and Day 180; aortic distensibility (assessed with CMR and PWV methods) at the end of treatment; pharmacokinetics and safety (adverse events, serious adverse events, and vital signs) of 48 h infusion of serelaxin 30 μg/kg/day. The changes in levels of circulating biomarkers of cardiorenal and vascular function during and after treatment with serelaxin were also assessed as part of the exploratory endpoints.
as §1

NT-proBNP = assay: Plasma biomarker NT-proBNP; settings: for NT-proBNP, geo-mean (95% CI): plasma
Protocol: (§2) Biomarkers reported include: N-terminal pro-brain natriuretic peptide (NT-proBNP), high-sensitivity troponin T (hsTnT) measured to assess myocardial safety; cystatin C measured to access renal function; the biologically active form of endothelin-1 (1–21), measured to assess vascular function. Venous blood samples were collected at 0 (pre-dose), 24, 48, and 54 h, Day 30, and Day 180. NT-proBNP, hsTnT, and cystatin C samples were collected in EDTA tubes while endothelin-1 samples were collected in EDTA tubes containing aprotinin. Plasma was immediately frozen at −70°C pending analysis in complete patient sets. Commercial biomarker kits were as follows: hsTnT from Roche Diagnostics GmbH, Germany; cystatin C from Gentian, Moss, Norway; and active endothelin-1 […] from Biomedica Medizinprodukte, Vienna, Austria.
(§3) For the biomarker analyses, baseline was defined as the pre-dose assessment on Day 1. Raw values as well as changes from baseline were summarized by treatment and time. Descriptive statistics included geometric mean and 95% CI. For geometric means of change from baseline, a ratio to baseline was used to determine percentage change by first calculating in the log domain and then back transforming using exponentiation.
(§4) Baseline corresponds to the value at day 1 pre-dose. For change from baseline, geometric mean and its CI are calculated for the value (post) to baseline ratio.

hsTnT = assay: Plasma biomarker high-sensitivity troponin T; design: hs Troponin-T, geo-mean (95% CI): unit not given here
Protocol: as §2, §3, §4

[3] = Serum serelaxin pharmacokinetics (ELISA, non-compartmental)
Protocol: Blood samples (approximately 2 mL) for pharmacokinetic (PK) evaluation were collected at 0 (pre-dose), 24, 48, 50, and 54 h, and Day 30. Serum serelaxin concentration was determined by an enzyme-linked immunosorbent assay, developed and validated based upon a commercially available kit (Quantikine ELISA kit, R&D systems, MN, USA).[29] The PK parameters were calculated using non-compartmental methods that included steady-state concentration (Css) and systemic clearance (CL). Css was estimated using the serum concentration determined at 48 h, while CL was estimated using the rate of infusion and Css for each patient.

[4] = test system: patients with stable coronary artery disease; assay: Adverse events and serious adverse events
Protocol: All adverse events (AEs) were recorded along with investigator-reported seriousness, intensity, and relationship to study drug.

For Serelaxin, the “AIx, absolute value” ([1]; 0 h (pre-dose baseline), n=25) was 25.81 ± 7.70 (25) %, the “AIx, adjusted mean difference serelaxin versus placebo” value ([1]; 2 h) was -2.12% and the “AIx, change from baseline (adjusted mean)” value (from here on “AIx, change from baseline”) ([1]; 2 h, n=23) was -4.09%. The “AIx, absolute value” ([1]; 2 h post-dose, n=23) was 22.17 ± 10.09 (23) %, the “AIx, adjusted mean difference serelaxin versus placebo” value ([1]; 6 h) was -2.88% and the “AIx, change from baseline” value ([1]; 6 h, n=24) was -3.28%. For the same substance, the “AIx, absolute value” ([1]; 6 h post-dose, n=24) was 22.96 ± 6.95 (24) %, the “AIx, adjusted mean difference serelaxin versus placebo” value ([1]; 24 h) was “–0.84%” and the “AIx, change from baseline” value ([1]; 24 h, n=24) was -0.77%. For the same substance, the “AIx, absolute value” ([1]; 24 h post-dose, n=24) was 25.08 ± 8.10 (24) %, the “AIx, adjusted mean difference serelaxin versus placebo” value ([1]; 47 h) was 3.45% and the “AIx, change from baseline” value ([1]; 47 h, n=23) was 3.49%. The “AIx, absolute value” ([1]; 47 h post-dose, n=23) was 29.57 ± 9.75 (23) %, the “AIx, adjusted mean difference serelaxin versus placebo” value ([1]; 50 h) was 3.25% and the “AIx, change from baseline” value ([1]; 50 h, n=22) was -0.76%. The “AIx, absolute value” ([1]; 50 h post-dose, n=22) was 24.89 ± 12.50 (22) %, the “AIx, adjusted mean difference serelaxin versus placebo” value ([1]; 54 h) was -0.98% and the “AIx, change from baseline” value ([1]; 54 h, n=22) was -1.74%. The “AIx, absolute value” ([1]; 54 h post-dose, n=22) was 24.70 ± 10.62 (22) %, the “AIx, absolute value” ([1]; Day 30, n=25) was 24.98 ± 9.05 (25) % and the “AIx, adjusted mean difference serelaxin versus placebo” value ([1]; Day 30) was -1.76%. The “AIx, change from baseline” value ([1]; Day 30, n=25) was -0.98%, the “AIx, absolute value” ([1]; Day 180, n=24) was 26.15 ± 8.97 (24) % and the “AIx, adjusted mean difference serelaxin versus placebo” value ([1]; Day 180) was -0.05%. The “AIx, adjusted mean difference serelaxin versus placebo” value ([1]; Day 180, listed as serelaxin) was −0.05%, the “AIx, change from baseline” value ([1]; Day 180, n=24) was 0.23% and the “PWV, absolute value” ([2]; 0 h (pre-dose baseline), n=22) was 7.45 ± 2.05 (22) meters/second. For the same substance, the “PWV, adjusted mean difference serelaxin versus placebo” value ([2]; 24 h) was -0.157 meters/second, the “PWV, adjusted mean difference serelaxin versus placebo” value ([2]; 24 h, listed as serelaxin) was −0.16 meters/second and the “PWV, change from baseline (adjusted mean)” value (“PWV, change from baseline” for short) ([2]; 24 h, n=19) was -0.54 meters/second. The “PWV, absolute value” ([2]; 24 h post-dose, n=19) was 7.05 ± 1.88 (19) meters/second, the “PWV, adjusted mean difference serelaxin versus placebo” value ([2]; 47 h) was -0.34 meters/second and the “PWV, change from baseline” value ([2]; 47 h, n=21) was -0.26 meters/second. The “PWV, absolute value” ([2]; 47 h post-dose, n=22) was 7.20 ± 1.92 (22) meters/second, the “PWV, absolute value” ([2]; Day 30, n=23) was 7.99 ± 1.82 (23) meters/second and the “PWV, adjusted mean difference serelaxin versus placebo” value ([2]; Day 30) was -0.06 meters/second. The “PWV, adjusted mean difference serelaxin versus placebo” value ([2]; Day 30, listed as serelaxin) was −0.06 meters/second, the “PWV, change from baseline” value ([2]; Day 30, n=20) was 0.35 meters/second and the “PWV, absolute value” ([2]; Day 180, n=23) was 8.34 ± 2.11 (23) meters/second. For the same substance, the “PWV, adjusted mean difference serelaxin versus placebo” value ([2]; Day 180) was 0.12 meters/second, the “PWV, change from baseline” value ([2]; Day 180, n=20) was 0.93 meters/second and the “NT-proBNP change from baseline, geometric mean ratio to baseline (95% CI)” value (NT-proBNP; 24 h, n=27) was 0.89 (0.77, 1.02). For the same substance, the “NT-proBNP change from baseline, geometric mean ratio to baseline (95% CI)” value (NT-proBNP; 48 h, n=28) was 1.03 (0.79, 1.34), the “NT-proBNP change from baseline, geometric mean ratio to baseline (95% CI)” value (NT-proBNP; 54 h, n=27) was 1.36 (1.06, 1.75) and the “NT-proBNP change from baseline, geometric mean ratio to baseline (95% CI)” value (NT-proBNP; Day 30, n=29) was 1.02 (0.80, 1.29). For the same substance, the “NT-proBNP change from baseline, geometric mean ratio to baseline (95% CI)” value (NT-proBNP; Day 180, n=29) was 1.17 (0.86, 1.58), the “NT-proBNP, geo-mean (95% CI)” value (NT-proBNP; 0 h (pre-dose baseline), n=29) was 87.0 (60.2, 125.8) pg/mL and the “NT-proBNP, geo-mean (95% CI)” value (NT-proBNP; 24 h, n=27) was 74.7 (51.9, 107.5) pg/mL. For the same substance, the “NT-proBNP, geo-mean (95% CI)” value (NT-proBNP; 48 h, n=28) was 86.8 (57.7, 130.5) pg/mL, the “NT-proBNP, geo-mean (95% CI)” value (NT-proBNP; 54 h, n=27) was 117.1 (79.9, 171.7) pg/mL and the “NT-proBNP, geo-mean (95% CI)” value (NT-proBNP; Day 30, n=29) was 88.4 (60.3, 129.7) pg/mL. For the same substance, the “NT-proBNP, geo-mean (95% CI)” value (NT-proBNP; Day 180, n=29) was 101.6 (69.9, 147.8) pg/mL, the “hs Troponin-T change from baseline, geometric mean ratio to baseline (95% CI)” value (hsTnT; 24 h, n=27) was 0.90 (0.80, 1.01) and the “hs Troponin-T change from baseline, geometric mean ratio to baseline (95% CI)” value (hsTnT; 48 h, n=28) was 0.87 (0.79, 0.95). For the same substance, the “hs Troponin-T change from baseline, geometric mean ratio to baseline (95% CI)” value (hsTnT; 54 h, n=27) was 1.02 (0.85, 1.24), the “hs Troponin-T change from baseline, geometric mean ratio to baseline (95% CI)” value (hsTnT; Day 30, n=29) was 0.89 (0.78, 1.02) and the “hs Troponin-T change from baseline, geometric mean ratio to baseline (95% CI)” value (hsTnT; Day 180, n=29) was 1.09 (0.91, 1.31). For the same substance, the “hs Troponin-T, geo-mean (95% CI)” value (hsTnT; plasma, 0 h (pre-dose baseline), n=29) was 0.0076 (0.0057, 0.0102), the “hs Troponin-T, geo-mean (95% CI)” value (hsTnT; plasma, 24 h, n=27) was 0.0064 (0.0049, 0.0084) and the “hs Troponin-T, geo-mean (95% CI)” value (hsTnT; plasma, 48 h, n=28) was 0.0066 (0.0049, 0.0089). The “hs Troponin-T, geo-mean (95% CI)” value (hsTnT; plasma, 54 h, n=27) was 0.0079 (0.0057, 0.0110), the “hs Troponin-T, geo-mean (95% CI)” value (hsTnT; plasma, Day 30, n=29) was 0.0068 (0.0053, 0.0088) and the “hs Troponin-T, geo-mean (95% CI)” value (hsTnT; plasma, Day 180, n=29) was 0.0083 (0.0066, 0.0105). The “hsTnT geometric mean at baseline” value (hsTnT; plasma, pre-dose baseline, serelaxin group) was 7.6 ng/L, the “Systemic clearance (CL), geometric mean” value ([3]; estimated from rate of infusion and Css, 48 h IV infusion 30 µg/kg/day) was 1.38 mL/min/kg and the “Steady-state serum concentration (Css), geometric mean” value ([3]; serum concentration at 48 h of 48 h IV infusion 30 µg/kg/day, ELISA, non-compartmental) was 15.1 ng/mL. For the same substance, the “Patients discontinuing the study due to hypotensive events” value ([4]; in vivo) was “No patient”, the “AEs considered causally related to serelaxin” value ([4]; investigator-reported relationship) was “None” and the “Angina pectoris (AE by preferred term)” value ([4]; safety set n=30) was 1 (3) n (%). The “Angina unstable (AE by preferred term)” value ([4]; safety set n=30) was 1 (3) n (%), the “Blood creatinine increased (AE by preferred term)” value ([4]; safety set n=30) was 1 (3) n (%) and the “Dizziness (AE by preferred term)” value ([4]; safety set n=30) was 2 (7) n (%). The “Dyspnoea (AE by preferred term)” value ([4]; safety set n=30) was 2 (7) n (%), the “Haematocrit decreased (AE by preferred term)” value ([4]; safety set n=30) was 1 (3) n (%) and the “Haemoglobin decreased (AE by preferred term)” value ([4]; safety set n=30) was 2 (7) n (%). For the same substance, the “Headache (AE by preferred term)” value ([4]; safety set n=30) was 2 (7) n (%), the “Musculoskeletal pain (AE by preferred term)” value ([4]; safety set n=30) was 2 (7) n (%) and the “Presyncope (AE by preferred term)” value ([4]; safety set n=30) was 0 (0) n (%). For the same substance, the “Subjects with at least one AE” value ([4]; safety set n=30, 48 h IV infusion 30 µg/kg/day, follow-up to Day 180) was 17 (57) n (%) and the Deaths ([4]; study period to Day 180) was “No deaths”.
